According to PubChem BioAssay AID2060494 (Molecular Pharmacology Branch, DTP, NCI, 2025):

Test system: 435261-313-R-J1-PDC complex spheroid viability
Assay: Anticancer human tumor 435261-313-R-J1-PDC patient-derived colon adenocarcinoma cell line growth inhibition [GQUAD]
Conditions: for IC50: curve of first compound; for viability, T/C: stronger effect = lower value
Procedure, shortened: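 Tumor cells were grown as complex spheroids with HUVEC endothelial cells and mesenchymal stem cells as stroma. G-quadruplex stabilizers were combined with targeted agents over half-log dilutions from near the clinical Cmax, or from 10 microM.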

[1] = second compound 0.0316 µM, first compound 0.0316 µM
[2] = second compound 0.0316 µM, first compound 0.1 µM
[3] = second compound 0.0316 µM, first compound 0.316 µM
[4] = second compound 0.0316 µM, first compound 1 µM
[5] = second compound 0.0316 µM, first compound 3.16 µM
[6] = second compound 0.0316 µM, first compound 10 µM
[7] = second compound 0.1 µM, first compound 0.0316 µM
[8] = second compound 0.1 µM, first compound 0.1 µM
[9] = second compound 0.1 µM, first compound 0.316 µM
[10] = second compound 0.1 µM, first compound 1 µM
[11] = second compound 0.1 µM, first compound 3.16 µM
[12] = second compound 0.1 µM, first compound 10 µM
[13] = second compound 0.316 µM, first compound 0.0316 µM
[14] = second compound 0.316 µM, first compound 0.1 µM
[15] = second compound 0.316 µM, first compound 0.316 µM
[16] = second compound 0.316 µM, first compound 1 µM
[17] = second compound 0.316 µM, first compound 3.16 µM
[18] = second compound 0.316 µM, first compound 10 µM
[19] = second compound 1 µM, first compound 0.0316 µM
[20] = second compound 1 µM, first compound 0.1 µM
[21] = second compound 1 µM, first compound 0.316 µM
[22] = second compound 1 µM, first compound 1 µM
[23] = second compound 1 µM, first compound 3.16 µM
[24] = second compound 1 µM, first compound 10 µM
[25] = second compound 3.16 µM, first compound 0.0316 µM
[26] = second compound 3.16 µM, first compound 0.1 µM
[27] = second compound 3.16 µM, first compound 0.316 µM
[28] = second compound 3.16 µM, first compound 1 µM
[29] = second compound 3.16 µM, first compound 3.16 µM
[30] = second compound 3.16 µM, first compound 10 µM
[31] = second compound 10 µM, first compound 0.0316 µM
[32] = second compound 10 µM, first compound 0.1 µM
[33] = second compound 10 µM, first compound 0.316 µM
[34] = second compound 10 µM, first compound 1 µM
[35] = second compound 10 µM, first compound 3.16 µM
[36] = second compound 10 µM, first compound 10 µM
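Also: spheroids exposed to the agents for seven days before readout.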
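For viability, T/C in this document: percent of vehicle control viability with DMSO wells as 100%.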

In the case of COc1cccc2c1C(=O)c1c(O)c3c(c(O)c1C2=O)CC(O)(C(=O)CO)CC3OC1CC(N)C(O)C(C)O1 (stereo not drawn) + Cc1cnc(CNC(=O)c2c(=O)c3ccc(N4CCCN(C)CC4)nc3n3c2sc2ccccc23)cn1, the IC50 (second compound 0.0316 µM) is reported as 171 nM, the IC50 (second compound 0.1 µM) is reported as 137 nM and the IC50 (second compound 0.316 µM) is reported as under 31.6 nM. The IC50 (second compound 1 µM) was under 31.6 nM, the IC50 (second compound 3.16 µM) was under 31.6 nM and the IC50 (second compound 10 µM) was under 31.6 nM. For the same molecule, the viability, T/C [1] was 66.9%, the viability, T/C [2] was 48.1% and the viability, T/C [3] was 46.4%. For the same molecule, the viability, T/C [4] was 26%, the viability, T/C [5] was 1.47% and the viability, T/C [6] was 2.7%. For the same molecule, the viability, T/C [7] was 64.9%, the viability, T/C [8] was 53.1% and the viability, T/C [9] was 37.9%. The viability, T/C [10] was 21.9%, the viability, T/C [11] was 1.96% and the viability, T/C [12] was 2.36%. The viability, T/C [13] was 48.4%, the viability, T/C [14] was 50.5% and the viability, T/C [15] was 44.8%. The viability, T/C [16] was 11.5%, the viability, T/C [17] was 0.48% and the viability, T/C [18] was 1.34%. The viability, T/C [19] was 28.8%, the viability, T/C [20] was 35.5% and the viability, T/C [21] was 26%. It also gave a viability, T/C [22] of 0.13%, a viability, T/C [23] of 0.11% and a viability, T/C [24] of 0.36%. The viability, T/C [25] was 15.4%, the viability, T/C [26] was 19.2% and the viability, T/C [27] was 3.74%. The viability, T/C [28] was 0.1%, the viability, T/C [29] was 0.13% and the viability, T/C [30] was 0.2%. The viability, T/C [31] was 0.13%, the viability, T/C [32] was 0.19% and the viability, T/C [33] was 0.2%. For the same molecule, the viability, T/C [34] was 0.16%, the viability, T/C [35] was 0.19% and the viability, T/C [36] was 0.19%.

Molecule Cc1cccc(N(C)C(=O)C2C(O)CCN2c2nc(C)cc(C(F)(F)F)c2C#N)c1 (stereo not drawn) + Cc1cnc(CNC(=O)c2c(=O)c3ccc(N4CCCN(C)CC4)nc3n3c2sc2ccccc23)cn1 has an IC50 (second compound 0.0316 µM) of over 10000 nM, an IC50 (second compound 0.1 µM) of over 10000 nM and an IC50 (second compound 0.316 µM) of over 10000 nM. It also gave an IC50 (second compound 1 µM) of under 31.6 nM, an IC50 (second compound 3.16 µM) of under 31.6 nM and an IC50 (second compound 10 µM) of under 31.6 nM. For the same molecule, the viability, T/C [1] was 72.9%, the viability, T/C [2] was 76.9% and the viability, T/C [3] was 73.3%. It also gave a viability, T/C [4] of 63.7%, a viability, T/C [5] of 75.8% and a viability, T/C [6] of 81.6%. The viability, T/C [7] was 59.2%, the viability, T/C [8] was 66% and the viability, T/C [9] was 52.2%. For the same molecule, the viability, T/C [10] was 56.3%, the viability, T/C [11] was 61.5% and the viability, T/C [12] was 62.3%. The viability, T/C [13] was 49.1%, the viability, T/C [14] was 52.5% and the viability, T/C [15] was 65.3%. It also gave a viability, T/C [16] of 51.7%, a viability, T/C [17] of 51.1% and a viability, T/C [18] of 53%. For the same molecule, the viability, T/C [19] was 42%, the viability, T/C [20] was 53% and the viability, T/C [21] was 47.9%. The viability, T/C [22] was 51.6%, the viability, T/C [23] was 48.6% and the viability, T/C [24] was 45.3%. It also gave a viability, T/C [25] of 16.1%, a viability, T/C [26] of 21% and a viability, T/C [27] of 17%. The viability, T/C [28] was 17.3%, the viability, T/C [29] was 12.8% and the viability, T/C [30] was 9.97%. The viability, T/C [31] was 0.21%, the viability, T/C [32] was 5.23% and the viability, T/C [33] was 6.24%. For the same molecule, the viability, T/C [34] was 0.26%, the viability, T/C [35] was 0.33% and the viability, T/C [36] was 0.25%.

For Nc1ccn(C2OC(CO)C(O)C2(F)F)c(=O)n1 (stereo not drawn) + Cc1cnc(CNC(=O)c2c(=O)c3ccc(N4CCCN(C)CC4)nc3n3c2sc2ccccc23)cn1, the IC50 (second compound 0.0316 µM) was over 10000 nM, the IC50 (second compound 0.1 µM) was over 10000 nM and the IC50 (second compound 0.316 µM) was 4260 nM. The IC50 (second compound 1 µM) was under 31.6 nM, the IC50 (second compound 3.16 µM) was under 31.6 nM and the IC50 (second compound 10 µM) was under 31.6 nM. The viability, T/C [1] was 85.8%, the viability, T/C [2] was 63.4% and the viability, T/C [3] was 64.2%. The viability, T/C [4] was 59.8%, the viability, T/C [5] was 73.4% and the viability, T/C [6] was 59.3%. It also gave a viability, T/C [7] of 62.5%, a viability, T/C [8] of 67.5% and a viability, T/C [9] of 58.2%. For the same molecule, the viability, T/C [10] was 79.8%, the viability, T/C [11] was 61.6% and the viability, T/C [12] was 59.9%. The viability, T/C [13] was 64.5%, the viability, T/C [14] was 59.7% and the viability, T/C [15] was 56.3%. The viability, T/C [16] was 56.7%, the viability, T/C [17] was 54.4% and the viability, T/C [18] was 43.6%. It also gave a viability, T/C [19] of 51.5%, a viability, T/C [20] of 46.9% and a viability, T/C [21] of 47.8%. For the same molecule, the viability, T/C [22] was 52.1%, the viability, T/C [23] was 47% and the viability, T/C [24] was 28%. It also gave a viability, T/C [25] of 23.3%, a viability, T/C [26] of 26.2% and a viability, T/C [27] of 21.9%. The viability, T/C [28] was 6.98%, the viability, T/C [29] was 14% and the viability, T/C [30] was 0.27%. For the same molecule, the viability, T/C [31] was 0.21%, the viability, T/C [32] was 0.2% and the viability, T/C [33] was 0.17%. The viability, T/C [34] was 0.31%, the viability, T/C [35] was 0.2% and the viability, T/C [36] was 0.21%.

Molecule O=c1[nH]cc(F)c(=O)[nH]1 + Cc1cnc(CNC(=O)c2c(=O)c3ccc(N4CCCN(C)CC4)nc3n3c2sc2ccccc23)cn1 has an IC50 (second compound 0.0316 µM) of over 10000 nM, an IC50 (second compound 0.1 µM) of over 10000 nM and an IC50 (second compound 0.316 µM) of over 10000 nM. It also gave an IC50 (second compound 1 µM) of under 31.6 nM, an IC50 (second compound 3.16 µM) of under 31.6 nM and an IC50 (second compound 10 µM) of under 31.6 nM. For the same molecule, the viability, T/C [1] was 85.2%, the viability, T/C [2] was 68.1% and the viability, T/C [3] was 76.1%. For the same molecule, the viability, T/C [4] was 67.4%, the viability, T/C [5] was 81.4% and the viability, T/C [6] was 86.7%. It also gave a viability, T/C [7] of 68.8%, a viability, T/C [8] of 64% and a viability, T/C [9] of 56.1%. For the same molecule, the viability, T/C [10] was 65.7%, the viability, T/C [11] was 81.9% and the viability, T/C [12] was 61.1%. The viability, T/C [13] was 57.3%, the viability, T/C [14] was 59.5% and the viability, T/C [15] was 56.7%. The viability, T/C [16] was 56%, the viability, T/C [17] was 67% and the viability, T/C [18] was 60.6%. The viability, T/C [19] was 41.5%, the viability, T/C [20] was 45.9% and the viability, T/C [21] was 47.6%. For the same molecule, the viability, T/C [22] was 47%, the viability, T/C [23] was 55.1% and the viability, T/C [24] was 40.2%. For the same molecule, the viability, T/C [25] was 20.3%, the viability, T/C [26] was 19.4% and the viability, T/C [27] was 17.6%. It also gave a viability, T/C [28] of 24.2%, a viability, T/C [29] of 18.9% and a viability, T/C [30] of 23.6%. The viability, T/C [31] was 0.16%, the viability, T/C [32] was 0.18% and the viability, T/C [33] was 0.23%. For the same molecule, the viability, T/C [34] was 0.21%, the viability, T/C [35] was 0.23% and the viability, T/C [36] was 0.21%.
